Test results published in paper PMC9694544, “Conteltinib (CT-707) in patients with advanced ALK-positive non-small cell lung cancer: a multicenter, open-label, first-in-human phase 1 study” (BMC Medicine, 2022).
Read-outs that look alike come from different tables or passages of the source.

Tests used:
ALK G1202R = ALK G1202R (Homo sapiens, UniProt Q9UM73, G1202R); assay: ALK enzymatic IC50, G1202R; assay type: biochemical
Source text: Supplement 12916_2022_2646_MOESM1_ESM.docx, table 1 | column: ALK Enzymatic IC50 (nM)

clinical = conditions: human, in vivo; for half-life: read-out: T1/2 (converted); for Tmax: read-out: Tmax
Experimental: For single-dose PK parameters, plasma samples were taken at pre-dose and 0.5 h, 1 h, 2 h, 3 h, 4 h, 6 h, 8 h, 12 h, 24 h, 48 h, 72 h, 96 h, 120 h, 144 h, and 168 h post-dose in PK lead-in phase of dose-escalation phase, and plasma samples were also taken at pre-dose and 0.5 h, 1 h, 2 h, 3 h, 4 h, 6 h, 8 h, 12 h, and 24 h post-dose in cycle 1 day 1 of dose-expansion phase. During continuous dosing, serial plasma samples were collected at pre-dose in cycle 1 day 15, pre-dose in cycle 1 day 22, pre-dose and 0.5 h, 1 h, 2 h, 3 h, 4 h, 6 h, 8 h, 12 h, and 24 h post-dose in cycle 1 day 28 for all dose cohorts. The following PK parameters were assessed: area under the concentration-time curve from the time of dosing extrapolated to infinity, based on the last observed concentration (AUCINF_obs); area under the concentration-time curve from the time of dosing to the time of last observation (AUClast); maximum concentration (Cmax); time to maximum concentration (Tmax); elimination half-life (T1/2); and mean residence time from the time of dosing to the time of the last measurable concentration (MRTlast).

[1] = 100 mg, cycle 1 day 28 of dose-expansion phase, 100 mg (n=5), mean
[2] = 100 mg, single dose, cycle 1 day 1 of dose-expansion phase, 100 mg (n=5), mean
[3] = 450 mg, cycle 1 day 28 of dose-expansion phase, 450 mg (n=10), mean
[4] = 450 mg, single dose, cycle 1 day 1 of dose-expansion phase, 450 mg (n=10), mean
[5] = 600 mg, cycle 1 day 28 of dose-expansion phase, 600 mg (n=10), mean
[6] = 600 mg, single dose, cycle 1 day 1 of dose-expansion phase, 600 mg (n=10), mean
[7] = cycle 1 day 28 of dose-escalation phase, 50 mg (n=2), mean
[8] = cycle 1 day 28 of dose-escalation phase, 100 mg (n=3), mean
[9] = cycle 1 day 28 of dose-escalation phase, 200 mg (n=3), mean
[10] = cycle 1 day 28 of dose-escalation phase, 300 mg (n=3), mean
[11] = cycle 1 day 28 of dose-escalation phase, 450 mg (n=3), mean
[12] = cycle 1 day 28 of dose-escalation phase, 600 mg (n=7), mean

Chain of ALK G1202R (Q9UM73 19-1620 G1202R): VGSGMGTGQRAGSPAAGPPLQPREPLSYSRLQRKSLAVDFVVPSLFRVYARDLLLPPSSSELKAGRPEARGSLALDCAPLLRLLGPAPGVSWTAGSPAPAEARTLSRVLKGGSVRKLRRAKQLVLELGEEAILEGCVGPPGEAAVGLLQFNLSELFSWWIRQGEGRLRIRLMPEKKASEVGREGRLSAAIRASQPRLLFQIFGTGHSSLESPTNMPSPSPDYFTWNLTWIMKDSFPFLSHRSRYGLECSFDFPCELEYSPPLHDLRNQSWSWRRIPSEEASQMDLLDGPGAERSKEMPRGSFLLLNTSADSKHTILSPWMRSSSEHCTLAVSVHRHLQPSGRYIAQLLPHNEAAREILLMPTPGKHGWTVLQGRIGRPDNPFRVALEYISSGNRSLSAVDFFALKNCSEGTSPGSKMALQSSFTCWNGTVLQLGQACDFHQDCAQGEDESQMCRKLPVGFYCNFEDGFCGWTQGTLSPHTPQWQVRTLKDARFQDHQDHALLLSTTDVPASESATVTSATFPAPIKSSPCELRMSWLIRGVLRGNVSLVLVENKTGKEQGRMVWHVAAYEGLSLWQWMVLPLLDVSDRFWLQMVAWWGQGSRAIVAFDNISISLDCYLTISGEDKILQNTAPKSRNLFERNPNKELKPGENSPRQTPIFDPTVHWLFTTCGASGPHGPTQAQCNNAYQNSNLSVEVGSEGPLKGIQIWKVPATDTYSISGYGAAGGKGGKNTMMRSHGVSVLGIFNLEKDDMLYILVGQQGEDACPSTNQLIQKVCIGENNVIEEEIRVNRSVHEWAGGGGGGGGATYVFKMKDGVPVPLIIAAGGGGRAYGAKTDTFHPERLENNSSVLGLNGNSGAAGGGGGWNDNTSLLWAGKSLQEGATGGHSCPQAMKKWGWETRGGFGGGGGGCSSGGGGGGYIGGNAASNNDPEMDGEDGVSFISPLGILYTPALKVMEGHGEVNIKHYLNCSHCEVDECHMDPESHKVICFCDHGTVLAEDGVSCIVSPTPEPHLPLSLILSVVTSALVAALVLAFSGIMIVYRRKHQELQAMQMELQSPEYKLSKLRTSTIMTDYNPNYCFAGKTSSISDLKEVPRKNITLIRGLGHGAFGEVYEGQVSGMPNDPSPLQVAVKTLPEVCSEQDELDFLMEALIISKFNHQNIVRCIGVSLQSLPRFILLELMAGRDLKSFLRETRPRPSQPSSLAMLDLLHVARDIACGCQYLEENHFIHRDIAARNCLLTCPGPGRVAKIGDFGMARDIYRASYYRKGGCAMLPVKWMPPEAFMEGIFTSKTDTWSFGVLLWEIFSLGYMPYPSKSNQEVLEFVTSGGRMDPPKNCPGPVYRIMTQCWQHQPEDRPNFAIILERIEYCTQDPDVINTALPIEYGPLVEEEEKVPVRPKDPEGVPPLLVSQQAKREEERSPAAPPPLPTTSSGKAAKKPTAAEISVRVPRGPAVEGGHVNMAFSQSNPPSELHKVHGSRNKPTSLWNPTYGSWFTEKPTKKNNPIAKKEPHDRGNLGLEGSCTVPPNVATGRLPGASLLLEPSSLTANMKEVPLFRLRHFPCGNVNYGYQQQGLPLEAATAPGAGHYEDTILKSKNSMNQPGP

`COc1cc(N2CCC(N3CCN(C)CC3)CC2)ccc1Nc1nc2c(c(Nc3ccccc3S(=O)(=O)NC(C)C)n1)CCN2` [Conteltinib] showed an IC50 (ALK G1202R) of 6.3 nM, a Cmax (clinical; 100 mg, Cmax) of 123 ng/mL and an AUC(0-t) (clinical; [1]) of 1710 ng·h/mL. It also gave an MRT last (clinical; [1]) of 10.7 h, an AUC(0-inf) (clinical; 100 mg, cycle 1 day 28 of dose-expansion phase, 100 mg (n=5), mean, read-out: AUCINF_obs) of 6460 ng·h/mL and a half-life (clinical; [1]) of 53.2 h. The Tmax (clinical; [1]) was 2 h, the AUC(0-t) (clinical; [2]) was 737 ng·h/mL and the MRT last (clinical; [2]) was 8.9 h. The AUC(0-inf) (clinical; 100 mg, single dose, cycle 1 day 1 of dose-expansion phase, 100 mg (n=5), mean, read-out: AUCINF_obs) was 1310 ng·h/mL, the Cmax (clinical; 100 mg, single dose, cycle 1 day 1 of dose-expansion phase, 100 mg (n=5), mean, read-out: Cmax) was 85.5 ng/mL and the half-life (clinical; [2]) was 26.7 h. It also gave a Tmax (clinical; [2]) of 2.7 h, an AUC(0-t) (clinical; [3]) of 7040 ng·h/mL and an MRT last (clinical; [3]) of 10.5 h. The AUC(0-inf) (clinical; 450 mg, cycle 1 day 28 of dose-expansion phase, 450 mg (n=10), mean, read-out: AUCINF_obs) was 15700 ng·h/mL, the Cmax (clinical; 450 mg, cycle 1 day 28 of dose-expansion phase, 450 mg (n=10), mean, read-out: Cmax) was 491 ng/mL and the half-life (clinical; [3]) was 26.3 h. It also gave a Tmax (clinical; [3]) of 3 h, an AUC(0-t) (clinical; [4]) of 3060 ng·h/mL and an MRT last (clinical; [4]) of 9.3 h. For the same molecule, the AUC(0-inf) (clinical; 450 mg, single dose, cycle 1 day 1 of dose-expansion phase, 450 mg (n=10), mean, read-out: AUCINF_obs) was 6340 ng·h/mL, the Cmax (clinical; 450 mg, single dose, cycle 1 day 1 of dose-expansion phase, 450 mg (n=10), mean, read-out: Cmax) was 328 ng/mL and the Tmax (clinical; [4]) was 2.3 h. The AUC(0-inf) (clinical; 600 mg, AUCINF_obs) was 7150 ng·h/mL, the AUC(0-t) (clinical; [5]) was 11900 ng·h/mL and the AUC(0-inf) (clinical; 600 mg, cycle 1 day 28 of dose-expansion phase, 600 mg (n=10), mean, read-out: AUCINF_obs) was 32500 ng·h/mL. For the same molecule, the Cmax (clinical; 600 mg, cycle 1 day 28 of dose-expansion phase, 600 mg (n=10), mean, read-out: Cmax) was 772 ng/mL, the half-life (clinical; [5]) was 37.1 h and the Tmax (clinical; [5]) was 3.3 h. The AUC(0-t) (clinical; [6]) was 4610 ng·h/mL, the MRT last (clinical; [6]) was 9.8 h and the Cmax (clinical; 600 mg, single dose, cycle 1 day 1 of dose-expansion phase, 600 mg (n=10), mean, read-out: Cmax) was 472 ng/mL. It also gave a half-life (clinical; [6]) of 16.7 h, a Tmax (clinical; [6]) of 4.6 h and an AUC(0-t) (clinical; [7]) of 683 ng·h/mL. The AUC(0-inf) (clinical; cycle 1 day 28 of dose-escalation phase, 50 mg (n=2), mean, read-out: AUCINF_obs) was 16700 ng·h/mL, the Cmax (clinical; cycle 1 day 28 of dose-escalation phase, 50 mg (n=2), mean, read-out: Cmax) was 42.7 ng/mL and the half-life (clinical; [7]) was 352 h. The Tmax (clinical; [7]) was 1.5 h, the AUC(0-t) (clinical; [8]) was 1480 ng·h/mL and the AUC(0-inf) (clinical; cycle 1 day 28 of dose-escalation phase, 100 mg (n=3), mean, read-out: AUCINF_obs) was 6110 ng·h/mL. For the same molecule, the Cmax (clinical; cycle 1 day 28 of dose-escalation phase, 100 mg (n=3), mean, read-out: Cmax) was 106 ng/mL, the half-life (clinical; [8]) was 61.1 h and the Tmax (clinical; [8]) was 2.7 h. For the same molecule, the AUC(0-t) (clinical; [9]) was 3570 ng·h/mL, the MRT last (clinical; [9]) was 11.2 h and the AUC(0-inf) (clinical; cycle 1 day 28 of dose-escalation phase, 200 mg (n=3), mean, read-out: AUCINF_obs) was 12400 ng·h/mL. For the same molecule, the Cmax (clinical; cycle 1 day 28 of dose-escalation phase, 200 mg (n=3), mean, read-out: Cmax) was 259 ng/mL, the half-life (clinical; [9]) was 42.2 h and the Tmax (clinical; [9]) was 3 h. It also gave an AUC(0-t) (clinical; [10]) of 4860 ng·h/mL, an AUC(0-inf) (clinical; cycle 1 day 28 of dose-escalation phase, 300 mg (n=3), mean, read-out: AUCINF_obs) of 19000 ng·h/mL and a Cmax (clinical; cycle 1 day 28 of dose-escalation phase, 300 mg (n=3), mean, read-out: Cmax) of 282 ng/mL. For the same molecule, the half-life (clinical; [10]) was 50.9 h, the Tmax (clinical; [10]) was 3 h and the AUC(0-t) (clinical; [11]) was 8050 ng·h/mL. For the same molecule, the MRT last (clinical; [11]) was 11.6 h, the AUC(0-inf) (clinical; cycle 1 day 28 of dose-escalation phase, 450 mg (n=3), mean, read-out: AUCINF_obs) was 34400 ng·h/mL and the Cmax (clinical; cycle 1 day 28 of dose-escalation phase, 450 mg (n=3), mean, read-out: Cmax) was 474 ng/mL. For the same molecule, the half-life (clinical; [11]) was 48.6 h, the Tmax (clinical; [11]) was 4.3 h and the AUC(0-t) (clinical; [12]) was 14000 ng·h/mL. It also gave an MRT last (clinical; [12]) of 10.8 h, an AUC(0-inf) (clinical; cycle 1 day 28 of dose-escalation phase, 600 mg (n=7), mean, read-out: AUCINF_obs) of 53800 ng·h/mL and a Cmax (clinical; cycle 1 day 28 of dose-escalation phase, 600 mg (n=7), mean, read-out: Cmax) of 985 ng/mL.
